Results from ChEMBL document CHEMBL4334528, “Structure, Biosynthesis, and Bioactivity of Photoditritide from Photorhabdus temperata Meg1” (J Nat Prod, 2019).
Converted amounts (≈) assume the structure as drawn.

What was measured:
[1] = system: L6; assay: Cytotoxicity against rat L6 cells measured after 72 hrs by alamar blue dye based fluorimetry analysis; type: cell-based; details: L6, 72 h
[2] = system: Trypanosoma cruzi; assay: Antitrypanosomal activity against Trypanosoma cruzi Tulahuen C4 infected in rat L6 cells measured after 96 hrs by inverted microscopy analysis; type: functional, organism-based; details: Tulahuen C4, L6, 96 h
[3] = system: Micrococcus luteus; assay: Antibacterial activity against Micrococcus luteus assessed as bacterial growth inhibition by CLSI protocol based broth microdilution assay; type: functional
[4] = system: Escherichia coli; assay: Antibacterial activity against Escherichia coli OP50 assessed as bacterial growth inhibition by CLSI protocol based broth microdilution assay; type: functional
[5] = system: Clavispora lusitaniae; assay: Antifungal activity against Candida lusitaniae DSM 70102 assessed as fungal growth inhibition by EUCAST method; type: functional
[6] = system: Trypanosoma brucei rhodesiense; assay: Antitrypanosomal activity against Trypanosoma brucei rhodesiense STI B900 measured after 72 hrs by alamar blue dye based fluorimetry analysis; type: functional, organism-based; details: STI B900, 72 h
[7] = system: Leishmania donovani; assay: Antileishmanial activity against Leishmania donovani MHOM/ET/67/L82 measured after 72 hrs by alamar blue dye based fluorimetry analysis; type: functional, organism-based; details: MHOM/ET/67/L82, 72 h
[8] = system: Plasmodium falciparum; assay: Antiplasmodial activity against Plasmodium falciparum NF54 measured after 24 hrs in presence of [3H] hypoxanthine by liquid scintillation counter analysis; type: functional, organism-based

Row | MIC [3] [µM] | MIC [4] [µM] | MIC [5] [µM] | Structure (SMILES) | IC50 [1] [µM] | further results
1 |  |  |  | COc1cc([C@@H]2c3cc4c(cc3[C@H](O)[C@H]3COC(=O)[C@H]23)OCO4)cc(OC)c1OC [PODOFILOX] | 0.007 | 
2 | 3 (≈ 3.12 µg/mL) | 24 (≈ 24.9 µg/mL) | > 96 | N=C(N)NCCCC[C@H]1NC(=O)[C@H](Cc2c[nH]c3ccccc23)NC(=O)[C@H](Cc2ccc(O)cc2)NC(=O)[C@@H](Cc2c[nH]c3ccccc23)NC(=O)[C@@H](Cc2ccc(O)cc2)NC(=O)[C@@H](CCCCNC(=N)N)NC1=O | 83 | IC50 [2]: 71 µM; IC50 [6]: 13 µM; IC50 [7]: > 100 µM; IC50 [8]: 27 µM
3 |  |  | 0.42 (≈ 0.388 µg/mL) | C[C@@H]1[C@H](O)[C@@H](C)/C=C/C=C/C=C/C=C/C=C/C=C/C=C/[C@H](O[C@@H]2O[C@H](C)[C@@H](O)[C@H](N)[C@@H]2O)C[C@@H]2O[C@](O)(C[C@@H](O)C[C@@H](O)[C@H](O)CC[C@@H](O)C[C@@H](O)CC(=O)O[C@H]1C)C[C@H](O)[C@H]2C(=O)O [AMPHOTERICIN B] |  | 
4 |  | 0.6 (≈ 0.194 µg/mL) |  | O=C(N[C@H](CO)[C@H](O)c1ccc([N+](=O)[O-])cc1)C(Cl)Cl [CHLORAMPHENICOL] |  | 
5 | 4.2 (≈ 1.47 µg/mL) |  |  | CC1(C)S[C@@H]2[C@H](NC(=O)[C@H](N)c3ccccc3)C(=O)N2[C@H]1C(=O)O [AMPICILLIN] |  | 
